Data: patent EP0454429B1, “Use of 15-dehydroxy-16-oxoprostaglandin derivatives in the treatment of allergic diseases” (R-TECH UENO, LTD., priority 1990, dated 1991)

Experiments:
conjunctive = test: Histamine-induced conjunctival inflammation and dye leakage, ophthalmic administration (Test Example 6); assay type: in vivo, Female Wistar rats; parameters: Weight of Conjunctive (Mean±S.D.): dose or concentration left out as unconfirmed; settings: for Weight of Conjunctive (Mean±S.D.): 3 minutes before Evans Blue and subconjunctival histamine, 30 minutes, control 41.5±2.0; for Dye (µg/part): dye extracted from conjunctive, absorption at 625 nm, control 8.26±0.52
Method: Female Wistar rats (weight: 90g) were used as the test animals. The animals received the test compounds and, 3 minutes after, 0.5ml of 0.5% Ebans Blue/physiological saline was administered through the caudal vein. Then, immediately after, 0.05ml of 0.1% histamine hydrochloride/physiological saline was injected subconjunctivally at an upper eyelid. After 30 minutes, the animals were sacrificed by vertebral cervial dislocation and the scalp was peeled away towards the eyelid. Part of skin and conjunctive showing inflammation was cut off and weighed. Then, said conjunctive was minced and extracted overnight with 4ml […] at 40°C with shaking. The dye in the conjunctive was assayed by measuring absorption of the extract at 625 nm. […] Control animals received the same amount of the physiological saline.

[1] = tested on: increase in the airway resistance by histamine; test: Inhibition of histamine-induced increase in airway resistance, test compound i.v. (Test Example 2); assay type: in vivo; settings: one minute before histamine (3 µg/kg), anesthetized guinea pig
Method: A guinea pig was intraperitoneally anesthetized with 1.0-1.2 g/kg urethane (Katayama Kagaku, Japan). The test animal was cannulated through the common carotid […] and the trachea, and then pancuronium bromide was intravenously administered at 0.3 mg/kg to stop the spontaneous respiration of the test animal. The animal was artificially respired using a respirater for a small animal (SN-480-7, Shinano Seisakusho, Japan) and bronchospasm transducer (7020, Ugo Basile). The overflowing air at 6-9 ml(air)/time, 60 times/minute and loading pressure of 10 cm H2O was recorded on a recorder (056-1001, Hitachi Seisakusho, Japan) through the bronchospasm transducer. Histamine (3 µg/kg) was administered several times at 30 minutes intervals, and when the increase in the airway resistance by histamine was established, the test compounds were intravenously administered one minute before the administration of histamine (3 µg/kg) to induce airway constriction. The difference of airway resistance before and after the administration of histamine was taken as 100% and activity of test compounds was shown in terms of percent inhibition of the increase due to histamine.

PCA reaction = test: Passive cutaneous anaphylaxis (PCA) reaction in sensitized rats (Test Example 7); assay type: in vivo, Male Crj Wistar rats; settings: Dose 10 µg/kg intravenously, n=16
Method: Male Crj Wistar rats (7 weeks old) were passively sensitized by injecting 50µl of diluted rat anti-EA (egg albumin) antiserum at the dorsal skin.
After 48 hours, 1 ml of a mixture consisting of equal amount of 1% EA (egg albumin) as the antigen in physiological saline and 1% Evans Blue in physiological saline was injected in the caudal vein to elicit the PCA reaction. After 30 minutes, the animals were killed by deep anesthetization and dorsal skin was ablated. The major and minor axes of reacted part, i.e. pigment-leaking site were measured and the average value of them was taken as the diameter, from which the area was calculated.
Then said site was punched and amount of the pigment was measured by the following method.
The punched site was dipped in 1ml of 1N aqueous potassium hydroxide and allowed to stand overnight at 37°C. Then 9ml of a mixed solution of 0.6N H3PO4: acetone (5:13) was added and the mixture was centrifuged. The supernatant was assayed for absorption at 620 nm using an absorption spectrophotometer. The amount of the pigment was determined by calibration curve which was obtained using the known amounts of the pigment.
The test compound was dissolved in the physiological saline and intravenously administered. The control animals intravenously received the physiological saline (5ml/kg) alone.

contraction by histamine = test: Inhibition of histamine-induced contraction of isolated guinea pig trachea (Test Example 1); assay type: cell-based; settings: guinea pig trachea contracted with 5.4x10^-4M histamine, cumulative addition every 6 minutes; for IC20: concentration for 20% inhibition; for IC50: concentration for 50% inhibition
Method: (§1) A guinea pig was sacrificed by knocking at the occipital region and then bleeding from the femoral artery. The trachea was removed, incised in the longitudinal direction at the opposite side of the smooth muscle and sectioned into sections of about 1 to 1.5 cm along the cartilage. Seven or eight sections were linked by a silk thread in chains. The sample was stretched by 1.0 g of tension in 15 ml of Tyrode's solution at 37°C under flow of the mixed gas of 95% O2 and 5% CO2. After resting for 60 to 90 minutes for stabilization, the sample was contracted with 5.4x10^-4M histamine and when the construction reached the constant value, the test compounds were accumulately added every 6 minutes, and the change in tension was recorded on a recorder (T-626DS, Nippon Denshi Kagaku, Japan) through an isometric transducer (1T-1, LABOX, Fukukensha, Japan).
Rate of inhibition by the test compounds of the contraction by histamine was expressed in percent, and IC20 and IC50 values were calculated as the concentration of the test compounds for 20% and 50% […], respectively.

[2] = tested on: platelet activating factor (PAF); test: Inhibition of PAF-induced increase in airway resistance, test compound i.v. (Test Example 4); assay type: in vivo, guinea pig; settings: dose 10µg/kg i.v. one minute before PAF (50 ng/kg i.v.), n=2
Method: A guinea pig was intraperitoneally anesthetized with 1.2 g/kg urethane (Katayama Kagaku, Japan). The test animal was cannulated through the common carotid […] and the trachea, and then pancuronium bromide was intravenously administered at 0.3 mg/kg to stop the spontaneous respiration of the test animal. The animal was artificially respired using a respirater for a small animal (SN-480-7, Shinano Seisakusho, Japan) and bronchospasm transducer (7020, Ugo Basile). The overflowing air at 7-10 ml(air)/time, 60 times/minute and loading pressure of 10 cm H2O was recorded on a recorder (056-1001, Hitachi Seisakusho, Japan) through the bronchospasm transducer. When the base line was stabilized, platelet activating factor (PAF) (50 ng/kg) was intravenously administered. The increase in the airway resistance was determined taking the value at the complete occlusion of trachea as the maximum contraction (100%). The test compounds were intravenously administered one minute before the administration of PAF. The difference of airway resistance before and after the administration of 50 ng/kg PAF was taken as 100% and activity of test compound was shown in terms of percent inhibition of the increase due to PAF.

[3] = tested on: contraction by leukotriene D4; test: Inhibition of leukotriene D4-induced contraction of isolated guinea pig trachea (Test Example 3); assay type: cell-based; settings: guinea pig trachea contracted with 1x10^-8M leukotriene D4; for IC20: concentration for 20% inhibition; for IC50: concentration for 50% inhibition
Method: as §1, with “1x10^-8M leukotriene D4” for “5.4x10^-4M histamine”, “Densi” for “Denshi”
Rate of inhibition by the test compounds of the contraction by leukotriene D4 was expressed in percent, and IC20 and IC50 values were calculated as the concentration of the test compounds for 20% and 50% […], respectively.

Structure (SMILES)	IC50 (contraction by histamine; Cavia porcellus, 0.1 h) [nM]	IC50 ([3]; Cavia porcellus) [nM]	Weight of Conjunctive (Mean±S.D.) (conjunctive) [mg]	Dye (µg/part) (conjunctive)	IC20 (contraction by histamine; Cavia porcellus, 0.1 h) [nM]	IC20 ([3]; Cavia porcellus) [nM]	other results
CCCC(F)(F)C(=O)CCCC1C(=O)CC(O)C1C/C=C\CCCC(=O)OC (stereo not drawn) [Test Compound 8, 13,14-dihydro-15-dehydroxy-16-oxo-17,17-difluoro-PGD2 methyl ester]			32.7 ± 1.8				Inhibition (%) ([1]; dose 5 µg/kg): 93%; Amount(µg/site) (PCA reaction; amount of pigment in punched site, absorption at 620 nm, control 104.9±45.4): 38.0±15.9 µg/site; Area(mm^2) (PCA reaction; area of pigment-leaking site, 30 minutes after antigen, control 56.9±19.4): 33.7±7.5 mm^2; IC20 (contraction by histamine): 100 nM; IC50 (contraction by histamine): 350 nM; Increase in Resistance (%,mean) ([2]; complete occlusion of trachea = 100%, control 74.5): 11.5%; Inhibition (%) [2]: 84.6%; IC20 [3]: 40 nM; IC50 [3]: 120 nM
CCCC(F)(F)C(=O)CCC[C@H]1[C@H](O)CC(=O)[C@@H]1C/C=C\CCCC(=O)OC [compound 1]	1200	500	36.3 ± 2.1	7.13±0.65	300	160	Inhibition (%) ([1]; dose 10 µg/kg): 92%
CCCC(F)(F)C(=O)CCC[C@H]1[C@H](O)CC(=O)[C@@H]1C/C=C\CCCC(=O)O [compound 2]	2000	1000			300	300	Inhibition (%) ([1]; dose 10 µg/kg): 78%
CCCC(F)(F)C(=O)CCC[C@H]1C(=O)C[C@H](O)[C@@H]1C/C=C\CCCC(=O)OC [compound 8]			38.5 ± 2.0	7.69±0.71			
CCCC(F)(F)C(=O)CCC[C@H]1C=CC(=O)[C@@H]1C/C=C\CCCC(=O)OC [compound 9]			38.9 ± 1.8	7.49±0.67			

The next lines start with results.

IC50 (contraction by histamine; Cavia porcellus, 0.1 h) [nM]	IC50 ([3]; Cavia porcellus) [nM]	Structure (SMILES)	Weight of Conjunctive (Mean±S.D.) (conjunctive) [mg]	Dye (µg/part) (conjunctive)	IC20 (contraction by histamine; Cavia porcellus, 0.1 h) [nM]	IC20 ([3]; Cavia porcellus) [nM]	other results
2000	600	CCCC(F)(F)C(=O)CCC[C@H]1[C@H](O)CC(=O)[C@@H]1C/C=C\CCCC(=O)OC(C)C [compound 3]			500	180	
	25000	CCCC(F)(F)C(=O)CCC[C@H]1[C@H](C)CC(=O)[C@@H]1C/C=C\CCCC(=O)OC [compound 4]			10000	7000	
	20000	CCCC(F)(F)C(=O)CCC[C@@H]1[C@@H](C/C=C\CCCC(=O)OC)[C@@H](O)C[C@H]1O [compound 7]			17000	4000	
